Laboratory results from patent US20210070748A1, “INHIBITORS OF BRUTONS TYROSINE KINASE” (Pharmacyclics LLC, priority 2015, published 2021).
Where two headings read alike, the source gives them in different places.

What was measured:
Type in all cases: biochemical
EGFR = EGFR (Homo sapiens, UniProt P00533); assay: Inhibition of a panel of kinases, in vitro HotSpot kinase assay: EGFR
Description: (§1) The degree of inhibition of a panel of kinases is determined using the in vitro HotSpot kinase assay (purified enzymes, ^33P-ATP, an appropriate substrate and 1 μM ATP).

ITK = target: T1, ITK (Homo sapiens, UniProt Q08881); assay: Inhibition of a panel of kinases, in vitro HotSpot kinase assay: ITK
T1 sequence (Q08881 1-620): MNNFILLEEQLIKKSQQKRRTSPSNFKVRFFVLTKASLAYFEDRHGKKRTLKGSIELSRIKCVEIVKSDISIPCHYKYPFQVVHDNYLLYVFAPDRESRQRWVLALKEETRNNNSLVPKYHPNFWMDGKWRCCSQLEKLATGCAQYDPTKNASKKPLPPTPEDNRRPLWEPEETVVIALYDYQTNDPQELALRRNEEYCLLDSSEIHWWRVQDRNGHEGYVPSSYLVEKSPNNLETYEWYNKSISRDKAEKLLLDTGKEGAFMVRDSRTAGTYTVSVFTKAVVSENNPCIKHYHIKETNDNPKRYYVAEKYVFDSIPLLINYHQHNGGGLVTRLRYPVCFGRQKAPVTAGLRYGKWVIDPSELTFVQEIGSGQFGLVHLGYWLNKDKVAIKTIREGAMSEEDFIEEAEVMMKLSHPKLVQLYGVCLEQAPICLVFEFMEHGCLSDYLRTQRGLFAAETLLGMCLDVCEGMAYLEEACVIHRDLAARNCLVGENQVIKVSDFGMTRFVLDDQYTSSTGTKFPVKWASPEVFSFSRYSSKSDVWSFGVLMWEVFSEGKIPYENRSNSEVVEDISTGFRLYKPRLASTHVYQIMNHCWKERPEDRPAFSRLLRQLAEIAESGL
Description: as §1

TEC = target: T2, TEC (Homo sapiens, UniProt P42680); assay: Inhibition of a panel of kinases, in vitro HotSpot kinase assay: TEC
T2 sequence (P42680 1-631): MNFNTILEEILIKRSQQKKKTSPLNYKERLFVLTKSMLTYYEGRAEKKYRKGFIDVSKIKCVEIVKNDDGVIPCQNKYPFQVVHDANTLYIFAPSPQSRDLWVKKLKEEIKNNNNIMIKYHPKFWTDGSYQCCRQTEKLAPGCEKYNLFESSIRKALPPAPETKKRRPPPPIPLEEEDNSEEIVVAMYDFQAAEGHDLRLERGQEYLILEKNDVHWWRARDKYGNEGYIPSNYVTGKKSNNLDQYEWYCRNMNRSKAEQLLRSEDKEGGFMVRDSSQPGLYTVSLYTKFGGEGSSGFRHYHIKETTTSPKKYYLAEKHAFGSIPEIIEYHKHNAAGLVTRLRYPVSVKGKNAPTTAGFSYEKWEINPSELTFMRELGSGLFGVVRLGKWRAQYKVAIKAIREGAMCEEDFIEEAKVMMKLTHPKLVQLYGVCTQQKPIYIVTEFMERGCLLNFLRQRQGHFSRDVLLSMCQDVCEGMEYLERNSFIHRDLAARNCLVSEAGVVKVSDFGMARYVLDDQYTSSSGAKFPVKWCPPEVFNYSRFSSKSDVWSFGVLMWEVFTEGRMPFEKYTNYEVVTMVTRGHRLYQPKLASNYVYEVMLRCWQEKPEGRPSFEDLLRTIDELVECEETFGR
Description: as §1

SRC = SRC (Homo sapiens, UniProt P12931); assay: Inhibition of a panel of kinases, in vitro HotSpot kinase assay: SRC
Description: as §1

LCK = LCK (Homo sapiens, UniProt P06239); assay: Inhibition of a panel of kinases, in vitro HotSpot kinase assay: LCK; details: read-out: IC50 LCK
JAK3 = target: T3, JAK3 (Homo sapiens, UniProt P52333); assay: Inhibition of a panel of kinases, in vitro HotSpot kinase assay: JAK3; details: read-out: IC50 JAK3
T3 sequence (P52333 1-1124): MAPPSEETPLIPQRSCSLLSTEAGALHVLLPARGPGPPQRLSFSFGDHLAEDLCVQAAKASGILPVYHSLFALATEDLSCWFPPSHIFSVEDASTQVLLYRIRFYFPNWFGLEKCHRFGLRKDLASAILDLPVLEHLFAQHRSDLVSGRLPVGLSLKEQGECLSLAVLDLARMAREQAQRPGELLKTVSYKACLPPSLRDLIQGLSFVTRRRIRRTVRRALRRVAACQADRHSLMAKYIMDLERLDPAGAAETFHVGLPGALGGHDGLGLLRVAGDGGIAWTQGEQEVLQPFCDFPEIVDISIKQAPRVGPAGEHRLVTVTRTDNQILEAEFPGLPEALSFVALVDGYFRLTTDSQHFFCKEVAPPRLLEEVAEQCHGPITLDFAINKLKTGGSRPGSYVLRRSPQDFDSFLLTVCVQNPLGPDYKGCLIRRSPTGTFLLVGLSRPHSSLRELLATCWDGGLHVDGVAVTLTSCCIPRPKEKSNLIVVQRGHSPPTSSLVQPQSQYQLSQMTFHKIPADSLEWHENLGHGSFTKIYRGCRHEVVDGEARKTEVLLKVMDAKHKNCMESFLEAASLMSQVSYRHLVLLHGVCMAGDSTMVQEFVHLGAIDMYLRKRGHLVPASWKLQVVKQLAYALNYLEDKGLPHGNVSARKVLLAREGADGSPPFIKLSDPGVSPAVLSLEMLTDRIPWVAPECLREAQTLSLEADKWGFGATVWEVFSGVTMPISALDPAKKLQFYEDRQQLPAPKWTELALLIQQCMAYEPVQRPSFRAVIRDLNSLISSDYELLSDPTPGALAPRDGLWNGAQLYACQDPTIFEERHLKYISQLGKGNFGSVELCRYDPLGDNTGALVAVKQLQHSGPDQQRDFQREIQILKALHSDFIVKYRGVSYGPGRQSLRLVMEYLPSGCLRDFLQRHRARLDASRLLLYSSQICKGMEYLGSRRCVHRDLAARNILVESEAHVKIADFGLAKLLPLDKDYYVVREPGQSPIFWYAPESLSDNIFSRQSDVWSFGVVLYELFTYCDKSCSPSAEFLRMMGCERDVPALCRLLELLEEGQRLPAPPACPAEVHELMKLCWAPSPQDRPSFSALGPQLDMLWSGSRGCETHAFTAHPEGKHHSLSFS

[1] = Table 13, A compounds, 1 μM ATP

Chain of SRC (P12931 whole entry): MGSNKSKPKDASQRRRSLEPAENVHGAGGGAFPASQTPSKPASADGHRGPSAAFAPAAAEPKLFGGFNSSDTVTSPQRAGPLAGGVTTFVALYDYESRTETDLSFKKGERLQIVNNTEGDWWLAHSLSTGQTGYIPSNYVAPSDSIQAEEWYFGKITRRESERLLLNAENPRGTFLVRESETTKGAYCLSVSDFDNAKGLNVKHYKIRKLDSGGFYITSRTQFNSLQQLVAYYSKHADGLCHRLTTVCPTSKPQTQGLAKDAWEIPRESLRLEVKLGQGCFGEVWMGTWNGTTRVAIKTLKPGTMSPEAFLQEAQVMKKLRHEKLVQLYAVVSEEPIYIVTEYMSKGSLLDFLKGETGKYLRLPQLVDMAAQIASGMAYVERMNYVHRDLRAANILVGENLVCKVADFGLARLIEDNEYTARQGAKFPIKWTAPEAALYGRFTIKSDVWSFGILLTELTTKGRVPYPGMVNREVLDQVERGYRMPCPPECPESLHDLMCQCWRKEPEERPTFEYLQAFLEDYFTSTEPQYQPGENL
Chain of LCK (P06239 whole entry): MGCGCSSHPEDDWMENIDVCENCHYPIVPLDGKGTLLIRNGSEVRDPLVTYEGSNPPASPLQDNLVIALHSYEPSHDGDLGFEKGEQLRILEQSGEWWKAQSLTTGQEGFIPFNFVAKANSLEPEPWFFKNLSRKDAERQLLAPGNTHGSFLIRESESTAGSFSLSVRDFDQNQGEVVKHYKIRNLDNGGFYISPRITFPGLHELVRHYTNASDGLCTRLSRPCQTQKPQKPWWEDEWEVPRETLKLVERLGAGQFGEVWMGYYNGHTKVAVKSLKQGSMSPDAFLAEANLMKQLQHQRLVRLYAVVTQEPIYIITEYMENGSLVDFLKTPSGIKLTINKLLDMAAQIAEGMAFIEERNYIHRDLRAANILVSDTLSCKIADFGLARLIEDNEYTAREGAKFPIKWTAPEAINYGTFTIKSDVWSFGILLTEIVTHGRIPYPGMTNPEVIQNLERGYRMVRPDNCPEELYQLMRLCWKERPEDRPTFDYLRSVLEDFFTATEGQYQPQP
Chain of EGFR (P00533 25-1210): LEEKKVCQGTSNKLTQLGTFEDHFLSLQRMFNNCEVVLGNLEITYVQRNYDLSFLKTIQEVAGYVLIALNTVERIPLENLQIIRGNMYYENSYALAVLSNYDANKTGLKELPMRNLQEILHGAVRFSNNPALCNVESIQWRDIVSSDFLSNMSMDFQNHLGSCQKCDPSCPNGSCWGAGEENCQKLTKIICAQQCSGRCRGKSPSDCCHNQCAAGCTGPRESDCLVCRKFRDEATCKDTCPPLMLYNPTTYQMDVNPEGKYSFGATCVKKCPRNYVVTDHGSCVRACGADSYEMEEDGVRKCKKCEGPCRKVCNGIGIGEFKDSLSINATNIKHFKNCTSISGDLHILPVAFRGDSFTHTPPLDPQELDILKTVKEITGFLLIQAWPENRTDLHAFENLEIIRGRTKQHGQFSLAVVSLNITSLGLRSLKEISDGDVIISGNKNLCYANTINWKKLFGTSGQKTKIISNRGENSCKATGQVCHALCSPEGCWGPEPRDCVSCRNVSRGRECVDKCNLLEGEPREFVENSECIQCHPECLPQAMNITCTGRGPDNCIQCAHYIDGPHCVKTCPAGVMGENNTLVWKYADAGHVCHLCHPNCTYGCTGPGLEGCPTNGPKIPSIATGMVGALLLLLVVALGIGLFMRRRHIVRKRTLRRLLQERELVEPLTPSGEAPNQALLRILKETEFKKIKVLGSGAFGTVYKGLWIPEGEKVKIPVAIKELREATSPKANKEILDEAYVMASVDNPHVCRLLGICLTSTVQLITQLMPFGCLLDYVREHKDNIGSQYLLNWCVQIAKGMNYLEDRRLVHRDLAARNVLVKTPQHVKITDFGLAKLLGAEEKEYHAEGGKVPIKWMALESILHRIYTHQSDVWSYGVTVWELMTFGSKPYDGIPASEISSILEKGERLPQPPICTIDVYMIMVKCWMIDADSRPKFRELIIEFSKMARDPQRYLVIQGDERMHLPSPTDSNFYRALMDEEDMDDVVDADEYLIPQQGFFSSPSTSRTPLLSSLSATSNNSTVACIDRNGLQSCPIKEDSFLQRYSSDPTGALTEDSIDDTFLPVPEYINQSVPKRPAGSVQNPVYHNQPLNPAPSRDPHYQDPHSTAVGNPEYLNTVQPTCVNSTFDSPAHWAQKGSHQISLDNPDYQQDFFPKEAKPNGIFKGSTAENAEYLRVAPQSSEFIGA

Row | Structure (SMILES) | IC50 (EGFR; [1]) | IC50 (ITK; [1]) | IC50 (TEC; [1]) | IC50 (SRC; [1]) | IC50 (LCK; [1]) | IC50 (JAK3; [1]) | IC50 (EGFR; E compounds, Table 17) | IC50 (ITK; E compounds, Table 17) | IC50 (TEC; E compounds, Table 17) | IC50 (SRC; E compounds, Table 17) | IC50 (LCK; E compounds, Table 17) | IC50 (JAK3; E compounds, Table 17)
1 | C[C@@H]1[C@H](NC(=O)c2ccc(C3CC3)cc2F)CCCN1c1cnc(C(N)=O)c(Nc2ccc(N3CCN(C)CC3)nc2)n1 [Example A-177, 5-[(2R,3R)-3-(4-cyclopropyl-2-fluorobenzamido)-2-methylpiperidin-1-yl]-3-{[6-(4-methylpiperazin-1-yl)pyridin-3-yl]amino}pyrazine-2-caoxamide] | 1000 to 10000 nM | 1000 to 10000 nM | 100 to 1000 nM | 100 to 1000 nM | 100 to 1000 nM | 1000 to 10000 nM |  |  |  |  |  | 
2 | C[C@@H]1[C@H](NC(=O)c2ccc3oc(C4CC4)nc3c2)CCCN1c1cnc(C(N)=O)c(Nc2cnn(C)c2)n1 [Example E-139, N-((2R,3R)-1-(5-carbamoyl-6-((1-methyl-1H-pyrazol-4-yl)amino)pyrazin-2-yl)-2-methylpiperidin-3-yl)-2-cyclopropylbenzo[d] oxazole-5-carboxamide] |  |  |  |  |  |  | 100 to 1000 nM | 100 to 1000 nM | ≤ 10 nM | 10 to 100 nM | 10 to 100 nM | 100 to 1000 nM
3 | C[C@@H]1[C@H](NC(=O)c2ccc(C(C)(C)C)cc2)CCCN1c1cnc(C(N)=O)c(Nc2ccc(N3CCN(C)CC3)cc2)n1 [Example A-184, 5-[(2R,3R)-3-(4-tert-butylbenzamido)-2-methylpiperidin-1-yl]-3-{[4-(4-methylpiperazin-1-yl)phenyl]amino}pyrazine-2-carboxamide] | 1000 to 10000 nM | 100 to 1000 nM | 10 to 100 nM | 1000 to 10000 nM | > 10000 nM | > 10000 nM |  |  |  |  |  | 
4 | C[C@@H]1[C@H](NC(=O)c2ccc(C3CC3)cc2F)CCCN1c1cnc(C(N)=O)c(Nc2ccc(N3CCN(C)CC3)c(F)c2)n1 [Example A-171, 5-[(2R,3R)-3-(4-cyclopropyl-2-fluorobenzamido)-2-methylpiperidin-1-yl]-3-{[3-fluoro-4-(4-methylpiperazin-1-yl)phenyl]amino}pyrazine-2-carboxamide] | 100 to 1000 nM | 100 to 1000 nM | 10 to 100 nM | 10 to 100 nM | 10 to 100 nM | 1000 to 10000 nM |  |  |  |  |  | 
5 | COCCn1cc(Nc2nc(N3CCC[C@@H](NC(=O)c4ccc(C5CC5)cc4)[C@H]3C)cnc2C(N)=O)cn1 [Example A-186, 5-((2R,3R)-3-(4-cyclopropylbenzamido)-2-methylpiperidin-1-yl)-3-(1-(2-methoxylethyl)-1H-pyrazol-4-ylamino)pyrazine-2-carboxamide] | 1000 to 10000 nM | 100 to 1000 nM | 100 to 1000 nM | 100 to 1000 nM | 100 to 1000 nM | 1000 to 10000 nM |  |  |  |  |  | 
6 | C[C@@H]1CCN(c2cnc(C(N)=O)c(Nc3cnn(C)c3)n2)C[C@@H]1NC(=O)c1ccc(C2CC2)cc1 [Example E-140, 5-((3R,4R)-3-(4-cyclopropylbenzamido)-4-methylpiperidin-1-yl)-3-((1-methyl-1H-pyrazol-4-yl)amino)pyrazine-2-carboxamide] |  |  |  |  |  |  | > 10000 nM | > 10000 nM | 1000 to 10000 nM | > 10000 nM | 1000 to 10000 nM | > 10000 nM
7 | C=CC(=O)N1CC[C@@H](N(C)c2cnc(C(N)=O)c(Nc3cnn(CCOC)c3)n2)C1 [Example E-110, (R)-5-((1-acryloylpyrrolidin-3-yl)(methyl)amino)-3-(1-(2-methoxyethyl)-1H-pyrazol-4-ylamino)pyrazine-2-carboxamide] |  |  |  |  |  |  | 100 to 1000 nM | ≤ 10 nM | ≤ 10 nM | 100 to 1000 nM | 1000 to 10000 nM | < 10 nM
8 | C[C@@H]1[C@H](NC(=O)c2cccc(C(C)(C)O)c2)CCCN1c1cnc(C(N)=O)c(Nc2cnn(C)c2)n1 [Example E-145, 5-((2R,3R)-3-(3-(2-hydroxypropan-2-yl)benzamido)-2-methylpiperidin-1-yl)-3-((1-methyl-1H-pyrazol-4-yl)amino)pyrazine-2-carboxamide] |  |  |  |  |  |  | 100 to 1000 nM | 100 to 1000 nM | ≤ 10 nM | 10 to 100 nM | 10 to 100 nM | 100 to 1000 nM

Further lines, results first:

Row | IC50 (EGFR; [1]) | IC50 (ITK; [1]) | IC50 (TEC; [1]) | IC50 (SRC; [1]) | IC50 (LCK; [1]) | IC50 (JAK3; [1]) | IC50 (EGFR; E compounds, Table 17) | IC50 (ITK; E compounds, Table 17) | IC50 (TEC; E compounds, Table 17) | IC50 (SRC; E compounds, Table 17) | IC50 (LCK; E compounds, Table 17) | IC50 (JAK3; E compounds, Table 17) | Structure (SMILES)
9 | 100 to 1000 nM | 100 to 1000 nM | 10 to 100 nM | 100 to 1000 nM | 100 to 1000 nM | 100 to 1000 nM |  |  |  |  |  |  | C[C@@H]1[C@H](NC(=O)c2ccc(C3CC3)cc2F)CCCN1c1cnc(C(N)=O)c(Nc2ccc(C(=O)N3CCN(C)CC3)cc2)n1 [Example A-122, 5-[(2R,3R)-3-(4-cyclopropyl-2-fluorobenzamido)-2-methylpiperidin-1-yl]-3-{[4-(4-methylpiperazine-1-carbonyl)phenyl]amino}pyr-azine-2-carboxamide]
10 |  |  |  |  |  |  | > 10000 nM | > 10000 nM | 100 to 1000 nM | 1000 to 10000 nM | 1000 to 10000 nM | 1000 to 10000 nM | Cn1cc(Nc2nc(N3CCCC(C)(NC(=O)c4ccc(C5CC5)cc4)C3)cnc2C(N)=O)cn1 (stereo not drawn) [Example E-150, 5-(3-(4-cyclopropylbenzamido)-3-methylpiperidin-1-yl)-3-((1-methyl-1H-pyrazol-4-yl)amino)pyrazine-2-carboxamide]
11 | 1000 to 10000 nM | 100 to 1000 nM | 100 to 1000 nM | 100 to 1000 nM | 1000 to 10000 nM | > 10000 nM |  |  |  |  |  |  | C[C@@H]1[C@H](NC(=O)c2ccc(C3CC3)cc2F)CCCN1c1cnc(C(N)=O)c(Nc2ccc(S(=O)(=O)N3CCN(C)CC3)cc2)n1 [Example A-156, 5-[(2R,3R)-3-(4-cyclopropyl-2-fluorobenzamido)-2-methylpiperidin-1-yl]-3-({4-[(4-methylpiperazin-1-yl)sulfonyl]phenyl}amino)pyr-azine-2-carboxamide]
12 | 1000 to 10000 nM | 100 to 1000 nM | 10 to 100 nM | 100 to 1000 nM | 1000 to 10000 nM | 1000 to 10000 nM |  |  |  |  |  |  | C[C@@H]1[C@H](NC(=O)c2ccc(C3CC3)cc2F)CCCN1c1cnc(C(N)=O)c(Nc2cnn(C)c2)n1 [Example A-110, 5-[(2R,3R)-3-(4-cyclopropyl-2-fluorobenzamido)-2-methylpiperidin-1-yl]-3-[(1-methyl-1H-pyrazol-4-yl)amino]pyrazine-2-carboxamide]
